“Also recorded” adds a separate entry of the source. Read-outs that look alike come from different tables or passages of the source.
Assays:
[1] = target: T1, guinea pig liver transglutaminase (Cavia cutleri, UniProt P08587); assay: guinea pig liver transglutaminase activity, incorporation of 3H-putrescine into casein; assay type: biochemical; settings: for IC50: 3H-putrescine into casein, read-out: Half-maximal Inhibitory Concentration, transglutaminase; for potency ranking in the transglutaminase assay: in words
T1 construct: guinea pig liver transglutaminase activity; from tissue; host or cells: guinea pig liver
T1 sequence (P08587 2-690): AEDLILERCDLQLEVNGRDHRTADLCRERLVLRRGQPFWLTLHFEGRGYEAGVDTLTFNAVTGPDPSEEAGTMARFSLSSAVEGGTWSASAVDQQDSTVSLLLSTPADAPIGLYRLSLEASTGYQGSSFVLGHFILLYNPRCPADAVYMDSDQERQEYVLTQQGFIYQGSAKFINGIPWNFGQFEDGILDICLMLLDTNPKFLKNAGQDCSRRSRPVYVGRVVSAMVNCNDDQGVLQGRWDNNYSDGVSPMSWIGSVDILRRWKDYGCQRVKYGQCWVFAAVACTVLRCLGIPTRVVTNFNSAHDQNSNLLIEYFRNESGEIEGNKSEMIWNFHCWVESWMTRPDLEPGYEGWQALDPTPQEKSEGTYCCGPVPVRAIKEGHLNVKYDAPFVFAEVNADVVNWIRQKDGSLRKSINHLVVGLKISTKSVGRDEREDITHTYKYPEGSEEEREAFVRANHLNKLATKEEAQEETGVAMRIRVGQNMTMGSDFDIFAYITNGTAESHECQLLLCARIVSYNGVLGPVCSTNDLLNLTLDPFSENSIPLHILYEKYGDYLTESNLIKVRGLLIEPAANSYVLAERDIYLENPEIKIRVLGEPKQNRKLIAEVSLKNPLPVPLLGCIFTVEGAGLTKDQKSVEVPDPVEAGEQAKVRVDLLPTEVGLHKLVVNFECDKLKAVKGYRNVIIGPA
Protocol: Effect of Dansylcadaverine, Amantadine, and Rimantadine
on the Activity of Guinea Pig Liver Transglutaminase
Enzyme activity was measured by the incorporation of ^3 H-putrescine into casein. All three inhibitors of viral and α2 M internalization were also inhibitory in the transglutaminase assay.

[2] = system: vesicular stomatitis virus (VSV); assay: microbe, parasite or virus in culture; assay type: cell-based, vesicular stomatitis virus; Swiss 3T3 mouse cells; settings: for VSV-dependent RNA synthesis when VSV neutralizing antibody omitted (reversibility): Swiss 3T3, inhibitor-treated cultures; for IC50: Vesicular stomatitis virus, Swiss-3T3, in Mus musculus, 10 min, read-out: half-maximal inhibitory concentration, VSV dependent RNA synthesis; for effect on VSV entry / VSV dependent RNA synthesis: in words
[3] = system: vesicular stomatitis virus (VSV); assay type: cell-based, vesicular stomatitis virus; Swiss 3T3 mouse cells; settings: 200 μM; 10 min at 37° C.; MOI 500
[4] = system: α2 macroglobulin (α2 M) uptake, Swiss 3T3 cells; assay: uptake (internalization) of 125I-α2 macroglobulin by Swiss 3T3 cells; assay type: cell-based, mouse; settings: for IC50: Mus musculus, 0.75 h, Swiss 3T3, 0.5 μg/ml 125I-α2 M, 45 min at 37° C., read-out: half-maximal inhibitory concentration, α2 M uptake; for effect on α2 macroglobulin uptake: in words
[5] = system: vesicular stomatitis virus (VSV); assay type: cell-based, vesicular stomatitis virus; Swiss 3T3 mouse cells; settings: for effect on uptake of VSV and α2 M via coated pits: Swiss 3T3, EM
[6] = system: Swiss 3T3 cells
[7] = system: Swiss 3T3 cells; assay: cytotoxicity and cellular RNA synthesis in drug-treated Swiss 3T3 cultures; settings: Swiss 3T3, experimental protocol of FIG. 2
[8] = system: α2 M in coated pits, Swiss 3T3 cells; assay: electron microscopy (peroxidase staining) of α2 M appearance in coated pits of Swiss 3T3 cells; assay type: cell-based, mouse; settings: 250 μg/ml α2 M; for α2 M appearance in coated pits: 45 min at 4° C., varying inhibitor concentrations
Protocol: Swiss 3T3 cells were incubated with 250 μg/ml α2 M at 4° C., with and without inhibitor. Em localization of α2 M was performed using a peroxidase staining technique.
Varying concentrations of amantadine and rimantadine were present during the incubation period. The cells were then washed, fixed for EM and the α2 M located by the peroxidase method. […] In the absence of inhibitors, α2 M was easily detected in coated pits by the peroxidase techniques (FIG. 5B).

Row | Compound | IC50 [1] [µM] | potency ranking in the transglutaminase assay [1] | VSV-dependent RNA synthesis when VSV neutralizing antibody omitted (reversibility) [2] | IC50 [2] [µM] | potency relative to amantadine, VSV uptake (antiviral) ([2]; dansylcadaverine versus amantadine) [fold] | effect on VSV entry / VSV dependent RNA synthesis [2] | intracellular VSV G protein / VSV uptake by immunofluorescence [3] | IC50 [4] [µM] | effect on α2 macroglobulin uptake [4] | coated pit appearance in VSV-infected cells by EM ([5]; 100 μM dansylcadaverine (FIG. 4D)) | coated pit appearance in VSV-infected cells by EM ([5]; 500 μM dansylcadaverine (FIG. 4E)) | effect on uptake of VSV and α2 M via coated pits [5] | cellular RNA synthesis, drug-treated versus control cultures [6] | cytotoxicity [7] | coated pit appearance in VSV-infected cells by EM ([5]; 1 mM rimantadine (FIG. 4F)) | α2 M appearance in coated pits [8] | α2 M localization by EM ([8]; 1 mM rimantadine, 4° C. (FIG. 5D)) | α2 M localization by EM ([8]; 5 mM amantadine, 4° C. (FIG. 5C))
1 | CN(C)c1cccc2c(S(=O)(=O)NCCCCCN)cccc12 [dansylcadaverine] | 200 | most potent | control levels of VSV-dependent RNA synthesis | 50 | 20 | blocking virus (such as vesicular stomatitis virus, VSV), and α2 macroglobulin uptake; also recorded: reduction of VSV-dependent RNA synthesis; also recorded: inhibit VSV entry; also recorded: reduced VSV dependent RNA synthesis | little or no G protein | 150 | inhibit the uptake of α2 macroglobulin | vacant coated pit | vacant coated pit | drastically perturbed this uptake mechanism | equivalent in control and drug-treated cultures | no evidence of cytotoxicity | – | – | – | –
2 | CC(N)C12CC3CC(CC(C3)C1)C2 (stereo not drawn) [rimantadine] | 5000 | second most potent | – | – | – | – | – | 500 | – | – | – | drastically perturbed this uptake mechanism | – | – | vacant coated pit | inhibition of α2 M appearance in coated pits | α2 M bound to plasma membrane | –
3 | NC12CC3CC(CC(C3)C1)C2 [amantadine, 1-adamantanamine] | 20000 | third | control levels of VSV-dependent RNA synthesis | 1000 | – | reduction of VSV-dependent RNA synthesis; also recorded: inhibit VSV entry; also recorded: reduced VSV dependent RNA synthesis | – | 2500 | inhibit the uptake of α2 macroglobulin | – | – | drastically perturbed this uptake mechanism | equivalent in control and drug-treated cultures | no evidence of cytotoxicity | – | inhibition of α2 M appearance in coated pits | – | α2 M bound diffusely to the plasma membrane

From patent US4396628A (priority 1982, dated 1983)
